Laboratory results taken from ChEMBL document CHEMBL4316596, “Antimicrobial Peptides with High Proteolytic Resistance for Combating Gram-Negative Bacteria” (J Med Chem, 2019).

System: Pseudomonas aeruginosa
Test: Antimicrobial activity against Pseudomonas aeruginosa CICC 21630 clinical isolates after 24 hrs by NCCLS-protocol based assay
Type: functional
Conditions: CICC 21630, 24 h

Substance | MIC95 [µM]
H-LRPLLRPLLRPLLRPLLRPL-NH2 | 16
H-LRPLLRPLLRPLLRPLLRPLLRPLLRPLLRPL-NH2 | 4

System: Pseudomonas aeruginosa
Test: Antimicrobial activity against Pseudomonas aeruginosa 26305 clinical isolates after 24 hrs by NCCLS-protocol based assay
Type: functional
Conditions: Pseudomonas aeruginosa, 26305, 24 h

Substance | MIC95 [µM]
H-LRPLLRPLLRPLLRPLLRPL-NH2 | 32
H-LRPLLRPLLRPLLRPLLRPLLRPLLRPLLRPL-NH2 | 2

System: Pseudomonas aeruginosa
Test: Bactericidal activity against Pseudomonas aeruginosa 26305 clinical isolates incubated for 4 hrs followed by culture spread on agar plates and cultured overnight
Type: functional
Conditions: Pseudomonas aeruginosa, 26305, 4 h; read-out: MBC>99.9

Substance | MBC [µM]
H-LRPLLRPLLRPLLRPLLRPL-NH2 | 32
H-LRPLLRPLLRPLLRPLLRPLLRPLLRPLLRPL-NH2 | 4

System: Escherichia coli
Test: Bactericidal activity against Escherichia coli ATCC 25922 incubated for 4 hrs followed by culture spread on agar plates and cultured overnight
Type: functional
Conditions: ATCC 25922, 4 h, read-out: MBC>99.9

Substance | MBC [µM]
H-LRPLLRPLLRPLLRPLLRPL-NH2 | 4
H-LRPLLRPLLRPLLRPLLRPLLRPLLRPLLRPL-NH2 | 2

System: Escherichia coli
Test: Antimicrobial activity against Escherichia coli 078 after 24 hrs by NCCLS-protocol based assay
Type: functional
Conditions: Escherichia coli, 078, 24 h

Substance | MIC95 [µM]
H-LRPLLRPLLRPLLRPLLRPL-NH2 | 4
H-LRPLLRPLLRPLLRPLLRPLLRPLLRPLLRPL-NH2 | 1

System: Pseudomonas aeruginosa
Test: Bactericidal activity against Pseudomonas aeruginosa ATCC 27853 incubated for 4 hrs followed by culture spread on agar plates and cultured overnight
Type: functional
Conditions: ATCC 27853, 4 h, read-out: MBC>99.9

Substance | MBC [µM]
H-LRPLLRPLLRPLLRPLLRPL-NH2 | 16
H-LRPLLRPLLRPLLRPLLRPLLRPLLRPLLRPL-NH2 | 4

System: Escherichia coli
Test: Bactericidal activity against Escherichia coli K88 incubated for 4 hrs followed by culture spread on agar plates and cultured overnight
Type: functional
Conditions: K88, 4 h, read-out: MBC>99.9

Substance | MBC [µM]
H-LRPLLRPLLRPLLRPLLRPL-NH2 | 4
H-LRPLLRPLLRPLLRPLLRPLLRPLLRPLLRPL-NH2 | 1

System: not listed separately
Test: Antimicrobial activity against Salmonella pullorum C7913 after 24 hrs by NCCLS-protocol based assay
Type: functional, Salmonella enterica subsp. enterica serovar Pullorum
Conditions: Salmonella enterica, C7913, 24 h

Substance | MIC95 [µM]
H-LRPLLRPLLRPLLRPLLRPL-NH2 | 2
H-LRPLLRPLLRPLLRPLLRPLLRPLLRPLLRPL-NH2 | 1

System: not listed separately
Test: Bactericidal activity against Salmonella pullorum C7913 incubated for 4 hrs followed by culture spread on agar plates and cultured overnight
Type: functional, Salmonella enterica subsp. enterica serovar Pullorum
Conditions: Salmonella enterica, C7913, 4 h; read-out: MBC>99.9

Substance | MBC [µM]
H-LRPLLRPLLRPLLRPLLRPL-NH2 | 4
H-LRPLLRPLLRPLLRPLLRPLLRPLLRPLLRPL-NH2 | 2

System: Salmonella typhimurium
Test: Antimicrobial activity against Salmonella typhimurium ATCC 14028 after 24 hrs by NCCLS-protocol based assay
Type: functional, Salmonella enterica subsp. enterica serovar Typhimurium
Conditions: Salmonella enterica, ATCC 14028, 24 h

Substance | MIC95 [µM]
H-LRPLLRPLLRPLLRPLLRPL-NH2 | 4
H-LRPLLRPLLRPLLRPLLRPLLRPLLRPLLRPL-NH2 | 2

System: Pseudomonas aeruginosa
Test: Bactericidal activity against Pseudomonas aeruginosa 25349 clinical isolates incubated for 4 hrs followed by culture spread on agar plates and cultured overnight
Type: functional
Conditions: Pseudomonas aeruginosa, 25349, 4 h; read-out: MBC>99.9

Substance | MBC [µM]
H-LRPLLRPLLRPLLRPLLRPL-NH2 | 32
H-LRPLLRPLLRPLLRPLLRPLLRPLLRPLLRPL-NH2 | 4

System: Klebsiella pneumoniae
Test: Antimicrobial activity against Klebsiella pneumoniae after 24 hrs by NCCLS-protocol based assay
Type: functional
Conditions: not given

Substance | MIC95 [µM]
H-LRPLLRPLLRPLLRPLLRPL-NH2 | 8
H-LRPLLRPLLRPLLRPLLRPLLRPLLRPLLRPL-NH2 | 2

System: Escherichia coli
Test: Antimicrobial activity against Escherichia coli K99 after 24 hrs by NCCLS-protocol based assay
Type: functional
Conditions: K99, 24 h

Substance | MIC95 [µM]
H-LRPLLRPLLRPLLRPLLRPL-NH2 | 4
H-LRPLLRPLLRPLLRPLLRPLLRPLLRPLLRPL-NH2 | 1

System: Escherichia coli
Test: Bactericidal activity against Escherichia coli 078 incubated for 4 hrs followed by culture spread on agar plates and cultured overnight
Type: functional
Conditions: Escherichia coli, 078, 4 h; read-out: MBC>99.9

Substance | MBC [µM]
H-LRPLLRPLLRPLLRPLLRPL-NH2 | 4
H-LRPLLRPLLRPLLRPLLRPLLRPLLRPLLRPL-NH2 | 2

System: Escherichia coli
Test: Antimicrobial activity against Escherichia coli ATCC 25922 after 24 hrs by NCCLS-protocol based assay
Type: functional
Conditions: ATCC 25922, 24 h

Substance | MIC95 [µM]
H-LRPLLRPLLRPLLRPLLRPL-NH2 | 4
H-LRPLLRPLLRPLLRPLLRPLLRPLLRPLLRPL-NH2 | 2

System: Pseudomonas aeruginosa
Test: Bactericidal activity against Pseudomonas aeruginosa PAO1 incubated for 4 hrs followed by culture spread on agar plates and cultured overnight
Type: functional
Conditions: PAO1, 4 h, read-out: MBC>99.9

Substance | MBC [µM]
H-LRPLLRPLLRPLLRPLLRPL-NH2 | 32
H-LRPLLRPLLRPLLRPLLRPLLRPLLRPLLRPL-NH2 | 4

System: Salmonella typhimurium
Test: Bactericidal activity against Salmonella typhimurium C7731 incubated for 4 hrs followed by culture spread on agar plates and cultured overnight
Type: functional, Salmonella enterica subsp. enterica serovar Typhimurium
Conditions: Salmonella enterica, C7731, 4 h; read-out: MBC>99.9

Substance | MBC [µM]
H-LRPLLRPLLRPLLRPLLRPL-NH2 | 8
H-LRPLLRPLLRPLLRPLLRPLLRPLLRPLLRPL-NH2 | 4

System: Klebsiella pneumoniae
Test: Bactericidal activity against Klebsiella pneumoniae incubated for 4 hrs followed by culture spread on agar plates and cultured overnight
Type: functional
Conditions: read-out: MBC>99.9

Substance | MBC [µM]
H-LRPLLRPLLRPLLRPLLRPL-NH2 | 8
H-LRPLLRPLLRPLLRPLLRPLLRPLLRPLLRPL-NH2 | 4

System: Salmonella typhimurium
Test: Antimicrobial activity against Salmonella typhimurium C7731 after 24 hrs by NCCLS-protocol based assay
Type: functional, Salmonella enterica subsp. enterica serovar Typhimurium
Conditions: Salmonella enterica, C7731, 24 h

Substance | MIC95 [µM]
H-LRPLLRPLLRPLLRPLLRPL-NH2 | 4
H-LRPLLRPLLRPLLRPLLRPLLRPLLRPLLRPL-NH2 | 2

System: Pseudomonas aeruginosa
Test: Antimicrobial activity against Pseudomonas aeruginosa PAO1 after 24 hrs by NCCLS-protocol based assay
Type: functional
Conditions: PAO1, 24 h

Substance | MIC95 [µM]
H-LRPLLRPLLRPLLRPLLRPL-NH2 | 32
H-LRPLLRPLLRPLLRPLLRPLLRPLLRPLLRPL-NH2 | 2

System: Pseudomonas aeruginosa
Test: Bactericidal activity against Pseudomonas aeruginosa CICC 21625 clinical isolates incubated for 4 hrs followed by culture spread on agar plates and cultured overnight
Type: functional
Conditions: CICC 21625, 4 h, read-out: MBC>99.9

Substance | MBC [µM]
H-LRPLLRPLLRPLLRPLLRPL-NH2 | 32
H-LRPLLRPLLRPLLRPLLRPLLRPLLRPLLRPL-NH2 | 8

System: Escherichia coli
Test: Antimicrobial activity against Escherichia coli K88 after 24 hrs by NCCLS-protocol based assay
Type: functional
Conditions: K88, 24 h

Substance | MIC95 [µM]
H-LRPLLRPLLRPLLRPLLRPL-NH2 | 2
H-LRPLLRPLLRPLLRPLLRPLLRPLLRPLLRPL-NH2 | 1

System: Pseudomonas aeruginosa
Test: Antimicrobial activity against Pseudomonas aeruginosa 25349 clinical isolates after 24 hrs by NCCLS-protocol based assay
Type: functional
Conditions: Pseudomonas aeruginosa, 25349, 24 h

Substance | MIC95 [µM]
H-LRPLLRPLLRPLLRPLLRPL-NH2 | 32
H-LRPLLRPLLRPLLRPLLRPLLRPLLRPLLRPL-NH2 | 2

System: Pseudomonas aeruginosa
Test: Antimicrobial activity against Pseudomonas aeruginosa ATCC 27853 after 24 hrs by NCCLS-protocol based assay
Type: functional
Conditions: ATCC 27853, 24 h

Substance | MIC95 [µM]
H-LRPLLRPLLRPLLRPLLRPL-NH2 | 32
H-LRPLLRPLLRPLLRPLLRPLLRPLLRPLLRPL-NH2 | 2

System: Pseudomonas aeruginosa
Test: Antimicrobial activity against Pseudomonas aeruginosa CICC 21625 clinical isolates after 24 hrs by NCCLS-protocol based assay
Type: functional
Conditions: CICC 21625, 24 h

Substance | MIC95 [µM]
H-LRPLLRPLLRPLLRPLLRPL-NH2 | 32
H-LRPLLRPLLRPLLRPLLRPLLRPLLRPLLRPL-NH2 | 8

System: Escherichia coli
Test: Bactericidal activity against Escherichia coli UB1005 incubated for 4 hrs followed by culture spread on agar plates and cultured overnight
Type: functional
Conditions: UB1005, 4 h, read-out: MBC>99.9

Substance | MBC [µM]
H-LRPLLRPLLRPLLRPLLRPL-NH2 | 8
H-LRPLLRPLLRPLLRPLLRPLLRPLLRPLLRPL-NH2 | 4

System: Pseudomonas aeruginosa
Test: Bactericidal activity against Pseudomonas aeruginosa CICC 21630 clinical isolates incubated for 4 hrs followed by culture spread on agar plates and cultured overnight
Type: functional
Conditions: CICC 21630, 4 h, read-out: MBC>99.9

Substance | MBC [µM]
H-LRPLLRPLLRPLLRPLLRPL-NH2 | 16
H-LRPLLRPLLRPLLRPLLRPLLRPLLRPLLRPL-NH2 | 4

System: Escherichia coli
Test: Antimicrobial activity against Escherichia coli UB1005 after 24 hrs by NCCLS-protocol based assay
Type: functional
Conditions: UB1005, 24 h

Substance | MIC95 [µM]
H-LRPLLRPLLRPLLRPLLRPL-NH2 | 4
H-LRPLLRPLLRPLLRPLLRPLLRPLLRPLLRPL-NH2 | 2

System: Acinetobacter baumannii
Test: Antimicrobial activity against Acinetobacter baumannii after 24 hrs by NCCLS-protocol based assay
Type: functional
Conditions: not given

Substance | MIC95 [µM]
H-LRPLLRPLLRPLLRPLLRPL-NH2 | 2
H-LRPLLRPLLRPLLRPLLRPLLRPLLRPLLRPL-NH2 | 1

System: Escherichia coli
Test: Bactericidal activity against Escherichia coli K99 incubated for 4 hrs followed by culture spread on agar plates and cultured overnight
Type: functional
Conditions: K99, 4 h, read-out: MBC>99.9

Substance | MBC [µM]
H-LRPLLRPLLRPLLRPLLRPL-NH2 | 8
H-LRPLLRPLLRPLLRPLLRPLLRPLLRPLLRPL-NH2 | 2

System: Acinetobacter baumannii
Test: Bactericidal activity against Acinetobacter baumannii incubated for 4 hrs followed by culture spread on agar plates and cultured overnight
Type: functional
Conditions: read-out: MBC>99.9

Substance | MBC [µM]
H-LRPLLRPLLRPLLRPLLRPL-NH2 | 4
H-LRPLLRPLLRPLLRPLLRPLLRPLLRPLLRPL-NH2 | 1

System: Salmonella typhimurium
Test: Bactericidal activity against Salmonella typhimurium ATCC 14028 incubated for 4 hrs followed by culture spread on agar plates and cultured overnight
Type: functional, Salmonella enterica subsp. enterica serovar Typhimurium
Conditions: Salmonella enterica, ATCC 14028, 4 h; read-out: MBC>99.9

Substance | MBC [µM]
H-LRPLLRPLLRPLLRPLLRPL-NH2 | 16
H-LRPLLRPLLRPLLRPLLRPLLRPLLRPLLRPL-NH2 | 4
